Tests used:
Liver carboxylesterase 1 = target: T1, Liver carboxylesterase 1 (Homo sapiens, UniProt P23141); assay: Inhibition of human carboxylesterase 1 using 2-(2'-benzoyl-3'-methoxylphenyl)-benzothiazole as substrate at 0.1 to 200 uM by fluorescence assay
T1 sequence (P23141 whole entry): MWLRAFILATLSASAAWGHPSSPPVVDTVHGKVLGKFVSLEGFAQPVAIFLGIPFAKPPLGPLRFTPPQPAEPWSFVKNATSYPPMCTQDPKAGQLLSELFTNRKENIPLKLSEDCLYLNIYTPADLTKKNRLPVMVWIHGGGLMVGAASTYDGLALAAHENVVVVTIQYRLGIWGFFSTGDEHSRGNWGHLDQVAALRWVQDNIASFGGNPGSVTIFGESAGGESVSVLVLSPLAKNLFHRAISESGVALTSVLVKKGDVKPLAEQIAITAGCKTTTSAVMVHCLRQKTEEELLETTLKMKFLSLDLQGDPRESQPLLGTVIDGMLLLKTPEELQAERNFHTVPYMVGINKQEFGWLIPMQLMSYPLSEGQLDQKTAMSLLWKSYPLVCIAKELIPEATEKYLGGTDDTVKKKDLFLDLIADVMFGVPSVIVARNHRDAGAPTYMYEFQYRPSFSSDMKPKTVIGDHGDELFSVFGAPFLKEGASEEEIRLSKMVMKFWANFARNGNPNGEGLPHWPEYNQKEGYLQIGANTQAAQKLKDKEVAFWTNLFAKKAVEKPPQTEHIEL

Cocaine esterase [1] = target: T2, Cocaine esterase (Homo sapiens, UniProt O00748); assay: Inhibition of human carboxylesterase 2 using 4-benzoyl-N-butyl-1,8-naphthalimide as substrate by fluorescence assay
T2 sequence (O00748 whole entry): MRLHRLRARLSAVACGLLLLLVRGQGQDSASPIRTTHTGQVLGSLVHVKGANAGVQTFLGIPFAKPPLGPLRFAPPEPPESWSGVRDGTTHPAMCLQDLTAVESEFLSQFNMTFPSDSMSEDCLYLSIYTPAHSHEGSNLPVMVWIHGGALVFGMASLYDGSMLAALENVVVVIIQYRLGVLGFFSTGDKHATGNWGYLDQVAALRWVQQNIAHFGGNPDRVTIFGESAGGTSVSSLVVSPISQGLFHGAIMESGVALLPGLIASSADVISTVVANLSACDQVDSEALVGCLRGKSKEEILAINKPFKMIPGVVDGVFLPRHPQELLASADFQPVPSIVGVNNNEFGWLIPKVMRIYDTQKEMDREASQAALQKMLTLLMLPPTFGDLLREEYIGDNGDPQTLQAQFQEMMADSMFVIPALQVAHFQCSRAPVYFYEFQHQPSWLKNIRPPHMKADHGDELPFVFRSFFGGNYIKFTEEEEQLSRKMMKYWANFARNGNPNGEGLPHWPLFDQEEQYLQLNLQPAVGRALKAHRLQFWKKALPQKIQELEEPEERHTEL

Cocaine esterase [2] = target: T2, Cocaine esterase; assay: […] inhibition of human carboxylesterase 2 using 4-benzoyl-N-butyl-1,8-naphthalimide as substrate by Dixon and Lineweaver-Burk plot analysis

Compound | inhibition (INH) (Liver carboxylesterase 1) | IC50 (Cocaine esterase [1]) [µM] | Ki (Cocaine esterase [2]) [µM]
C=C(C)[C@@H](O)[C@@H](O)C[C@@H](C)C1=C2CC[C@H]3[C@@]4(C)CCC(=O)C(C)(C)[C@@H]4CC[C@]3(C)[C@@]2(C)CC1 | Not Active | – | –
C[C@H](CC(=O)[C@H](O)C(C)(C)O)C1=C2C=C[C@H]3[C@@]4(C)CCC(=O)C(C)(C)[C@@H]4CC[C@]3(C)[C@@]2(C)CC1=O | Not Active | – | –
C=C(C)[C@@H](O)[C@@H](O)C[C@@H](C)C1=C2C=C[C@H]3[C@@]4(C)CCC(=O)C(C)(C)[C@@H]4CC[C@]3(C)[C@@]2(C)CC1=O | Not Active | 8.68 | –
CC(=O)O[C@@H](C[C@@H](C)C1=C2C=C[C@H]3[C@@]4(C)CCC(=O)C(C)(C)[C@@H]4CC[C@]3(C)[C@@]2(C)CC1=O)[C@H](O)C(C)(C)O | Not Active | – | –
C[C@H](C[C@H](O)[C@H](O)C(C)(C)O)C1=C2C=C[C@H]3[C@@]4(C)CCC(=O)C(C)(C)[C@@H]4CC(=O)[C@]3(C)[C@@]2(C)CC1=O | Not Active | – | –
CC1(C)O[C@@H]1[C@@H](O)C[C@](C)(O)C1=C2C[C@H](O)[C@H]3[C@@]4(C)CCC(=O)C(C)(C)[C@@H]4CC[C@]3(C)[C@@]2(C)CC1=O | Not Active | – | –
CCOC(C)(C)[C@H](O)[C@@H](O)C[C@@H](C)C1=C2C[C@H](O)[C@H]3[C@@]4(C)CCC(=O)C(C)(C)[C@@H]4CC[C@]3(C)[C@@]2(C)CC1 | Not Active | 4.72 | –
C[C@H](C[C@H](O)[C@@H](O)C(C)(C)O)C1=C2C[C@H](O)[C@H]3[C@@]4(C)CCC(=O)C(C)(C)[C@@H]4CC[C@]3(C)[C@@]2(C)C=C1 | Not Active | – | –
C[C@H](CC[C@H](O)C(C)(C)O)[C@H]1CC[C@@]2(C)C1=CC=C1[C@]2(C)CC[C@H]2C(C)(C)C(=O)CC[C@]12C | Not Active | 4.58 | –
C[C@@H]1CC(=O)[C@@H](C(C)(C)O)O[C@H]2C[C@@]3(C)C(=C12)C=C[C@H]1[C@@]2(C)CCC(=O)C(C)(C)[C@@H]2CC[C@@]13C | Not Active | – | –
CC1=CC(=O)C[C@@]2(C)[C@H]1CC[C@@]1(C)[C@H]2[C@@H](O)CC2=C([C@H](C)C[C@H](O)[C@@H](O)C(C)(C)O)CC[C@@]21C | Not Active | 2.02 | 1.76
CC(=O)C1=C2C=C[C@H]3[C@@]4(C)CCC(=O)C(C)(C)[C@@H]4CC[C@]3(C)[C@@]2(C)CC1=O | Not Active | – | –
CC(=O)O[C@@H]([C@@H](O)C[C@@H](C)C1=C2C[C@H](O)[C@H]3[C@@]4(C)CCC(=O)C(C)(C)[C@@H]4CC[C@]3(C)[C@@]2(C)CC1)C(C)(C)O | Not Active | – | –
C[C@H](C[C@H](O)[C@H](O)C(C)(C)O)C1=C2C=C[C@H]3[C@@]4(C)CCC(=O)C(C)(C)[C@@H]4CC[C@]3(C)[C@@]2(C)CC1=O | Not Active | – | –
C[C@H](C[C@H](O)[C@@H](O)C(C)(C)O)C1=C2CC[C@H]3[C@@]4(C)CCC(=O)C(C)(C)[C@@H]4CC[C@]3(C)[C@@]2(C)CC1 | Not Active | 4.63 | –
CC(=O)O[C@H]1C[C@@H](C)C2=C3C[C@H](O)[C@H]4[C@@]5(C)CCC(=O)C(C)(C)[C@@H]5CC[C@]4(C)[C@@]3(C)C[C@@H]2O[C@@H]1C(C)(C)O | Not Active | – | –
C[C@@H]1C[C@@H]([C@@H](O)C(C)(C)O)O[C@H]2C[C@@]3(C)C(=C12)C=C[C@H]1[C@@]2(C)CCC(=O)C(C)(C)[C@@H]2CC[C@@]13C | Not Active | – | –
CC(=O)O[C@H]([C@@H]1C[C@@H](C)C2=C3C=C[C@H]4[C@@]5(C)CCC(=O)C(C)(C)[C@@H]5CC[C@]4(C)[C@@]3(C)C[C@@H]2O1)C(C)(C)O | Not Active | 24.3 | –
C=C(C)[C@H](O)[C@@H]1C[C@@H](C)C2=C3C[C@H](O)[C@H]4[C@@]5(C)CCC(=O)C(C)(C)[C@@H]5CC[C@]4(C)[C@@]3(C)C[C@@H]2O1 | Not Active | – | –
C[C@H](C[C@H](O)[C@@H](O)C(C)(C)O)C1=C2C[C@@H]3OC(=O)C[C@@]4(C)[C@H](C(C)(C)C(=O)O)CC[C@@](C)([C@@H]34)[C@@]2(C)CC1 | Not Active | 20.9 | –
C[C@H](C[C@H](O)[C@@H](O)C(C)(C)O)C1=C2C[C@H](O)[C@H]3[C@@]4(C)CCC(=O)C(C)(C)[C@@H]4CC[C@]3(C)[C@@]2(C)CC1 [ALISOL A] | Not Active | – | –
